Patent publication US12448369B2 (Edgewise Therapeutics, Inc., priority 2023, dated 2025)

Experiments:
[1] = test system: Rabbit Psoas myofibrils (skeletal myosin ATPase); test: Myofibril ATPase assay, rabbit psoas (skeletal) myofibrils; type: biochemical; details: rabbit psoas myofibrils
How it was run: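 Values are concentrations giving 75% (Y75) or 125% (Y125) of vehicle ATPase activity, from 4-parameter logistic fits of normalized rates. Rates came from linear regression of A340 over 75 min, NADH oxidation coupled to ADP via PK-LDH. Enzyme source: skeletal myofibrils from rabbit psoas, pH 7.0 pCa buffer.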

[2] = molecular target: T1, Porcine ventricle myofibrils (ventricular myosin ATPase) (Sus scrofa, UniProt P79293); test: Myofibril ATPase assay, porcine ventricle myofibrils; type: biochemical, porcine (Yucatan minipigs); details: porcine ventricle myofibrils
T1 construct: Myofibrils from porcine cardiac muscle was isolated from the left ventricle of Yucatan minipigs; tissue Exemplar Genetics; host or cells: left ventricle of Yucatan minipigs, myofibrils prepared in house
T1 sequence (P79293 whole entry): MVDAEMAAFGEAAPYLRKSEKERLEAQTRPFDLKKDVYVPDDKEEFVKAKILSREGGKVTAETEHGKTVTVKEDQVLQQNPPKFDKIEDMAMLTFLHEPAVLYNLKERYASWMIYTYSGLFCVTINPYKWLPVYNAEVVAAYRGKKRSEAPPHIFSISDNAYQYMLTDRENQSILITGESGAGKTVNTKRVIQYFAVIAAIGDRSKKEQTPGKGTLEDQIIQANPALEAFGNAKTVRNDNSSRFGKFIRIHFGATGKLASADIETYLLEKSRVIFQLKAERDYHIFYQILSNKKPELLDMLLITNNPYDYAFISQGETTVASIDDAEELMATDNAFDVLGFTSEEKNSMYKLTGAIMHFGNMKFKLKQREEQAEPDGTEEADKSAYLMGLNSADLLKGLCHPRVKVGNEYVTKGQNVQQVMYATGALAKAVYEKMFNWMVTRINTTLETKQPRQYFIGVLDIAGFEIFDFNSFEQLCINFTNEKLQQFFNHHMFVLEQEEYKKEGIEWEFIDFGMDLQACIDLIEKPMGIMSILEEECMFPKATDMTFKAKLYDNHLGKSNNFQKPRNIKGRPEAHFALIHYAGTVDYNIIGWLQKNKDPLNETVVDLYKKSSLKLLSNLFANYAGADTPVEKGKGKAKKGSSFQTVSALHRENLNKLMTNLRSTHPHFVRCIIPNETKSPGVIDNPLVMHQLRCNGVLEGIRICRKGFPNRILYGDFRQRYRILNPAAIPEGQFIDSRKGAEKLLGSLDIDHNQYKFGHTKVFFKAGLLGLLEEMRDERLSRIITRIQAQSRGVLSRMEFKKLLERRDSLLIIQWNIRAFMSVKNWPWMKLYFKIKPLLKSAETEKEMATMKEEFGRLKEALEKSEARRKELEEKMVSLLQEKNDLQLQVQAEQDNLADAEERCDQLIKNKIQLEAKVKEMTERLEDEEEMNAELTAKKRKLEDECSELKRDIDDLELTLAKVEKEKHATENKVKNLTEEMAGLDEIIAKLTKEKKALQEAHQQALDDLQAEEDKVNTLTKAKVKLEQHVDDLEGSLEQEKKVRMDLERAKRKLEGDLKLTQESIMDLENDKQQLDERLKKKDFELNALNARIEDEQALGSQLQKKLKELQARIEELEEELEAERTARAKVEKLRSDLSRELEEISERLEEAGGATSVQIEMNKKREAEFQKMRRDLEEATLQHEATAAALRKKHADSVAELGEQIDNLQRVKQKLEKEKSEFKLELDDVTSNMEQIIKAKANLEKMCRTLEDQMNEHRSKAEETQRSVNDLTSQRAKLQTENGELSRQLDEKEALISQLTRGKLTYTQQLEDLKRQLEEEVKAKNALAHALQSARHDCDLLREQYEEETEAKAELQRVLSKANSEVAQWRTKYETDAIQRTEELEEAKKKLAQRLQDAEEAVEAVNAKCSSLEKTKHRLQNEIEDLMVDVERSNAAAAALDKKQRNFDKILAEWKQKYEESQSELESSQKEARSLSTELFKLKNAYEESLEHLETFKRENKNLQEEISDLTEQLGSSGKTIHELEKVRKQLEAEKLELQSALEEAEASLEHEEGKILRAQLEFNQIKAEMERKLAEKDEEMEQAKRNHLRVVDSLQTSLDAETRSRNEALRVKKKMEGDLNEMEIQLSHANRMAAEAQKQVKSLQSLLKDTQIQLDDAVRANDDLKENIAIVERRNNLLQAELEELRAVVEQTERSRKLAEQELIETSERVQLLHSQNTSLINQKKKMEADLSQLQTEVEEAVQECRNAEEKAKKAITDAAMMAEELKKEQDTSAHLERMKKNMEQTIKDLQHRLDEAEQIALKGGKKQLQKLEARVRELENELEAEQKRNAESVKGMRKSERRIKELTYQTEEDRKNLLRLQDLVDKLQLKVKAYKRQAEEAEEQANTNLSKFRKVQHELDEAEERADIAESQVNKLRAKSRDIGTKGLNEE
How it was run: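 Myofibrils isolated from Yucatan minipig left ventricle; coupled PK/LDH NADH assay, pCa buffer pH 7.0, kinetic A340 reads over 75 min. Vehicle-normalized slopes fit 4PL; Y75/Y125 derived.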

[3] = test system: Porcine atria myofibrils (atrial myosin ATPase); test: Myofibril ATPase assay, porcine atria myofibrils; type: biochemical; details: porcine atria myofibrils
How it was run: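 Y75 (25% inhibition) or Y125 (activation) values come from 4-parameter logistic fits of vehicle-normalized rates. Rates are linear-regression slopes of NADH absorbance at 340 nm, read kinetically over 75 min, with ADP coupled to NADH oxidation via pyruvate kinase/lactate dehydrogenase.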

[4] = ‡ Y125 value, not a Y75 value (125% activity relative to no compound)
[5] = Y75 value (75% activity relative to no compound)

Row | Structure (SMILES) | Skeletal EC25 ([1]; Y75 value (no ‡ mark)) [µM] | Ventricular EC25 ([2]; Y75 value (no ‡ mark)) [µM] | Atrial EC25 ([3]; Y75 value (no ‡ mark)) [µM] | Skeletal EC25 ([1]; Y75 value) [µM] | Ventricular EC25 ([2]; Y75 value) [µM] | Atrial EC25 [3, 5] [µM] | further results
1 | Cc1c(CC(=O)N[C@H](C)c2ccc(C#N)nn2)c(=O)[nH]c2cccc(C#N)c12 [compound 1038] | 0.34 | 2.7 | 0.42 | – | – | – | –
2 | Cc1c(CC(=O)N[C@@H](C)c2ccc(C#N)nn2)c(=O)[nH]c2cc(F)c(F)cc12 [compound 1043] | 0.41 | 3.5 | 1.28 | – | – | – | –
3 | Cc1c(CC(=O)N[C@@H](C)c2ncc(C#N)cn2)c(=O)[nH]c2ccc(C#N)cc12 (single isomer, unassigned) [compound 2028] | – | – | 100.00 | – | – | – | Skeletal EC25 [1, 4]: 73.42‡ μM; Ventricular EC25 [2, 4]: 100.00‡ μM
4 | COc1ccc2[nH]c(=O)c(CC(=O)N[C@@H](C)c3ccc(F)cc3F)cc2c1C [compound 92] | 2.83 | 100.00 | 29.94 | – | – | – | –
5 | Cc1c(CC(=O)N[C@H](C)c2ncc(C#N)cc2F)c(=O)[nH]c2cc(F)ccc12 [compound 1078] | 2.27 | 2.05 | 2.57 | – | – | – | –
6 | Cc1cc(C#N)nnc1[C@@H](C)NC(=O)Cc1c(C)c2cc(F)ccc2[nH]c1=O [compound 1058] | 29.21 | 6.86 | 1.92 | – | – | – | –
7 | C[C@@H](NC(=O)Cc1cc2cc(F)c(F)cc2[nH]c1=O)c1cnc(C#N)cn1 [compound 1098] | 17.72 | 17.06 | 7.06 | – | – | – | –
8 | Cc1c(CC(=O)N[C@@H](C)c2cnc(C#N)cn2)c(=O)[nH]c2cc(F)c(F)cc12 [compound 1103] | 0.06 | 1.07 | 0.40 | – | – | – | –
9 | Cc1c(CC(=O)N[C@@H](C)c2ncc(F)cc2F)c(=O)[nH]c2ccnc(C#N)c12 (single isomer, unassigned) [compound 305] | – | – | – | 0.02 | 0.57 | 0.07 | –
10 | C[C@H](NC(=O)Cc1cc2c(C#N)c(F)ccc2[nH]c1=O)c1ncc(C#N)cn1 (single isomer, unassigned) [compound 2018] | – | – | – | – | – | – | Skeletal EC25 [1, 4]: 100.00‡ μM; Ventricular EC25 [2, 4]: 100.00‡ μM; Atrial EC25 [3, 4]: 100.00‡ μM
11 | Cc1c(CC(=O)N[C@H](C)c2ccc(C#N)cn2)c(=O)[nH]c2cccc(F)c12 [compound 53] | 0.31 | 6.53 | 1.93 | – | – | – | –
12 | COc1nccc2[nH]c(=O)c(CC(=O)N[C@@H](C)c3ccc(F)cc3F)cc12 [compound 434] | – | – | – | 0.13 | 3.84 | 0.65 | –
13 | Cc1c(CC(=O)N[C@@H](C)c2ccc(F)cc2F)c(=O)[nH]c2ccc(C(F)(F)F)nc12 [compound 393] | – | – | – | 0.02 | 0.42 | 2.46 | –
14 | Cc1c(CC(=O)N[C@H](C)c2ncc(C#N)cc2F)c(=O)[nH]c2cccc(C#N)c12 [compound 1080] | 0.12 | 0.36 | 0.21 | – | – | – | –
15 | Cc1nccc2[nH]c(=O)c(CC(=O)N[C@H](CO)c3ccc(F)cc3F)c(C)c12 [compound 498] | – | – | – | 7.2 | 100 | 100 | –
16 | C[C@H](NC(=O)Cc1cc2ccc(F)cc2[nH]c1=O)c1ncc(C#N)cn1 (single isomer, unassigned) [compound 2034] | – | 100.00 | 100.00 | – | – | – | Skeletal EC25 [1, 4]: 100.00‡ μM
17 | Cc1nccc2[nH]c(=O)c(CC(=O)N[C@H](C)c3cccc(O)n3)c(C)c12 (single isomer, unassigned) [compound 297] | – | – | – | 100.00 | 100.00 | 100.00 | –
18 | C[C@H](NC(=O)[C@H](C)c1cc2c(C#N)nccc2[nH]c1=O)c1ccc(F)cc1F (single isomer, unassigned) [compound 360] | – | – | – | 0.05 | 100.00 | 100.00 | –
19 | O=C(Cc1cc2c(F)c(F)ccc2[nH]c1=O)N1CC2CC1c1ccccc12 (stereo not drawn) [compound 4504] | 0.30 | 0.47 | 0.92 | – | – | – | –
20 | C[C@H](NC(=O)Cc1cc2c(F)nccc2[nH]c1=O)c1ccc(F)cc1F [compound 394] | – | – | – | 0.03 | 0.53 | 0.27 | –

Row | Structure (SMILES) | Skeletal EC25 ([1]; Y75 value (no ‡ mark)) [µM] | Ventricular EC25 ([2]; Y75 value (no ‡ mark)) [µM] | Atrial EC25 ([3]; Y75 value (no ‡ mark)) [µM] | Skeletal EC25 ([1]; Y75 value) [µM] | Ventricular EC25 ([2]; Y75 value) [µM] | Atrial EC25 [3, 5] [µM] | further results
21 | C[C@H](NC(=O)Cc1c(C2CC2)c2cc(F)ccc2[nH]c1=O)c1ccc(C#N)cc1F [compound 74] | 0.01 | 0.46 | 0.69 | – | – | – | –
22 | Cc1nccc2[nH]c(=O)c(CC(=O)N[C@@H](C)c3cccnc3O)c(C)c12 (single isomer, unassigned) [compound 307] | – | – | – | 100.00 | 100.00 | 100.00 | –
23 | Cc1c(CC(=O)N[C@@H](C)c2cnc(C#N)nc2)c(=O)[nH]c2ccc(C(F)(F)F)nc12 [compound 458] | – | – | – | 10.51 | 100.00 | 0.79 | –
24 | Cc1nc(C#N)cnc1[C@H](C)NC(=O)Cc1c(C)c2c(C)nccc2[nH]c1=O [compound 492] | – | – | – | 0.28 | 0.32 | 0.08 | –
25 | Cc1c(CC(=O)N[C@@H](CO)c2ccc(F)cc2F)c(=O)[nH]c2ccc(C#N)nc12 [compound 211] | – | – | – | 22.09 | 53.99 | 7.02 | –
26 | C[C@H](NC(=O)Cc1c(C(F)(F)F)c2c(C3CC3)nccc2[nH]c1=O)c1ccc(F)cc1F [compound 421] | – | – | – | 0.20 | 100.00 | 100.00 | –
27 | C[C@H](NC(=O)C1(c2cc3cc(F)ccc3[nH]c2=O)CC1)c1nccc(C#N)n1 (single isomer, unassigned) [compound 2508] | 5.03 | – | 100.00 | – | – | – | Ventricular EC25 [2, 4]: 70.50‡ μM
28 | CC[C@@H](NC(=O)Cc1c(C)c2c(C)c(F)ccc2[nH]c1=O)c1ncc(C#N)cn1 (single isomer, unassigned) [compound 4833] | 0.25 | 1.04 | 0.52 | – | – | – | –
29 | Cc1c(F)ccc2[nH]c(=O)c(CC(=O)N[C@H](C)c3ccc(C#N)cc3F)c(O)c12 [compound 19] | 2.92 | 1.01 | 100.00 | – | – | – | –
30 | C[C@H](NC(=O)Cc1cc2c(F)cccc2[nH]c1=O)c1ccc(C#N)cn1 [compound 48] | 0.23 | 4.14 | 1.55 | – | – | – | –
31 | C[C@@H](NC(=O)C1(c2cc3c(F)c(F)ccc3[nH]c2=O)CC1)c1cc(C#N)ccn1 (single isomer, unassigned) [compound 2583] | 100.00 | 100.00 | 4.31 | – | – | – | –
32 | Cc1c(CC(=O)N[C@H](C)c2ncc(C#N)cc2F)c(=O)[nH]c2ccc(Cl)cc12 (single isomer, unassigned) [compound 2049] | 1.00 | 0.23 | 0.15 | – | – | – | –
33 | Cc1c(CC(=O)N[C@H](C)c2ncc(F)cc2F)c(=O)[nH]c2ccnc(C#N)c12 (single isomer, unassigned) [compound 304] | – | – | – | 1.57 | 100.00 | 17.26 | –
34 | Cc1c(CC(=O)N[C@H]2c3c(F)cc(F)cc3OC2(C)C)c(=O)[nH]c2ccnc(C#N)c12 (single isomer, unassigned) [compound 187] | – | – | – | 0.05 | 1.36 | 0.11 | –
35 | Cc1c(CC(=O)N[C@H]2COc3cc(C#N)cnc32)c(=O)[nH]c2ccc(F)cc12 [compound 1063] | 0.22 | 0.76 | 0.16 | – | – | – | –
36 | Cc1nc(C#N)ccc1[C@H](C)NC(=O)Cc1c(C)c2cc(F)ccc2[nH]c1=O [compound 1051] | 0.03 | 0.26 | 0.14 | – | – | – | –
37 | Cc1c(CC(=O)N[C@H](CO)c2ccc(F)cc2F)c(=O)[nH]c2ccnc(C#N)c12 [compound 229] | – | – | – | 4.20 | 34.95 | 8.21 | –
38 | Cc1nccc2[nH]c(=O)c(CC(=O)N[C@H](C)c3ccc(C#N)cc3F)c(Cl)c12 [compound 151] | – | – | – | 0.11 | 0.87 | 0.44 | –
39 | Cc1c(C(F)(F)C(=O)N[C@H](C)c2nccc(C#N)n2)c(=O)[nH]c2ccc(F)cc12 (single isomer, unassigned) [compound 2527] | – | 100.00 | 4.73 | – | – | – | Skeletal EC25 [1, 4]: 100.00‡ μM
